Measured values taken from US20040166060A1, “Liposomal encapsulation of alpha particle emittors and uses thereof” (Sloan Kettering Institute for Cancer Research, priority 2000, published 2004).

Legend:
[1] = Biodistribution of In-111-DTPA and large liposomes; settings: in vivo
Description: FIGS. 10A-10C depict the biodistribution of ^111In-DTPA only (FIG. 10A) zwitterionic liposomes (FIG. 10B), ^111In-DTPA cationic liposomes (FIG. 10C).
Over time the percentage per gram of tissue tested of the original amount of In-111 found in the spleen and liver increases while that in blood and other tissues such as heart, lungs, stomach, intestines, kidneys, bone, and muscle remain constant or decrease. […] Preinjection with empty large liposomes to saturate the reticuloendothelial organs will reduce non-specific radionuclide uptake by the spleen and liver.

myeloid leukemia = settings: first injection of an alpha-particle emitter to humans; cited from earlier work

Compound | tissue localization of In-111 [1] | trial outcome (myeloid leukemia)
O=C([O-])CN(CCN(CC(=O)[O-])CC(=O)[O-])CCN(CC(=O)[O-])CC(=O)[O-].[111In+3].[H+].[H+] [DTPA-chelated In-111] | localize to the kidneys more than to other tissues | –
HuM195: 213Bi conjugated to the anti-CD33 antibody HuM195 | – | feasibility and anti-cancer activity with minimal toxicity
